Results taken from patent publication US9149038B2, “4-amino-6-(heterocyclic)picolinates and 6-amino-2-(heterocyclic)pyrimidine-4-carboxylates and their use as herbicides” (Dow AgroSciences LLC, priority 2013, dated 2015).
Like-named read-outs stand apart in the source and are kept apart here.

System: Direct Seeded Rice and weed species
Assay: Postemergence herbicidal activity in direct seeded rice, visual rating after 20-22 days and probit GR20/GR50/GR80/GR90 (Table 14)
Type: in vivo
Conditions: for pest or weed control at 17.5 g/ha / pest or weed control at 35 g/ha / pest or weed control at 70 g/ha: post-emergence, 504 h, postemergence; for pest or weed control at 17.5 g/ha: 17.5 g ai/ha; for pest or weed control at 35 g/ha: 35 g ai/ha; for pest or weed control at 70 g/ha: 70 g ai/ha
Method in brief: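 Visual injury scores (0 = none, 100 = complete kill) taken 20-22 days after treatment and fitted by probit analysis over several doses to give GR20/GR50/GR80/GR90. Plants at 2nd–3rd true leaf in pH about 8.1 loam–sand mix received track-sprayer applications of 187 L/ha containing 1.25% (v/v) crop oil concentrate.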

[1] = BRAPP (broadleaf signalgrass, Brachiaria platyphylla), read-out: Visual Growth Reduction (%) 21 Days After Application BRAPP
[2] = CYPDI (small-flower flatsedge, Cyperus difformis), read-out: Visual Growth Reduction (%) 21 Days After Application CYPDI
[3] = CYPES (yellow nutsedge, Cyperus esculentus), read-out: Visual Growth Reduction (%) 21 Days After Application CYPES
[4] = CYPIR (rice flatsedge, Cyperus iria), read-out: Visual Growth Reduction (%) 21 Days After Application CYPIR
[5] = DIGSA (large crabgrass, Digitaria sanguinalis), read-out: Visual Growth Reduction (%) 21 Days After Application DIGSA
[6] = ECHCG (barnyardgrass, Echinochloa crus-galli), read-out: Visual Growth Reduction (%) 21 Days After Application ECHCG
[7] = ECHCO (junglerice, Echinochloa colonum), read-out: Visual Growth Reduction (%) 21 Days After Application ECHCO
[8] = LEFCH (Chinese sprangletop, Leptochloa chinensis), read-out: Visual Growth Reduction (%) 21 Days After Application LEFCH
[9] = ORYSJ (Oryza sativa, rice crop), read-out: Visual Growth Reduction (%) 21 Days After Application ORYSJ
[10] = ORYSK (Oryza sativa, rice crop), read-out: Visual Growth Reduction (%) 21 Days After Application ORYSK
[11] = SCPJU (Japanese bulrush, Schoenoplectus juncoides Roxb.), read-out: Visual Growth Reduction (%) 21 Days After Application SCPJU
[12] = SEBEX (hemp sesbania, Sesbania exaltata), read-out: Visual Growth Reduction (%) 21 Days After Application SEBEX

With `Nc1cc(-c2ccc3c(c2F)OC(F)(F)O3)nc(C(=O)O)c1Cl` [Compound 41] the “GR50 BRAPP” value (BRAPP (Brachiaria platyphylla), probit analysis, dose for 50 percent growth reduction) was 0.3 g ai/ha, the “GR80 BRAPP” value (BRAPP (Brachiaria platyphylla), probit analysis, dose for 80 percent growth reduction) was 2 g ai/ha and the “GR90 BRAPP” value (BRAPP (Brachiaria platyphylla), probit analysis, dose for 90 percent growth reduction) was 6 g ai/ha. The “GR50 CYPDI” value (CYPDI (Cyperus difformis), probit analysis, dose for 50 percent growth reduction) was 4 g ai/ha, the “GR80 CYPDI” value (CYPDI (Cyperus difformis), probit analysis, dose for 80 percent growth reduction) was 6 g ai/ha and the “GR90 CYPDI” value (CYPDI (Cyperus difformis), probit analysis, dose for 90 percent growth reduction) was 7 g ai/ha. For the same compound, the “GR50 CYPES” value (CYPES (Cyperus esculentus), probit analysis, dose for 50 percent growth reduction) was 0.0001 g ai/ha, the “GR80 CYPES” value (CYPES (Cyperus esculentus), probit analysis, dose for 80 percent growth reduction) was 0.0001 g ai/ha and the “GR90 CYPES” value (CYPES (Cyperus esculentus), probit analysis, dose for 90 percent growth reduction) was 0.0001 g ai/ha. The “GR50 CYPIR” value (CYPIR (Cyperus iria), probit analysis, dose for 50 percent growth reduction) was 0.0001 g ai/ha, the “GR80 CYPIR” value (CYPIR (Cyperus iria), probit analysis, dose for 80 percent growth reduction) was 0.0001 g ai/ha and the “GR90 CYPIR” value (CYPIR (Cyperus iria), probit analysis, dose for 90 percent growth reduction) was 0.0001 g ai/ha. For the same compound, the “GR50 DIGSA” value (DIGSA (Digitaria sanguinalis), probit analysis, dose for 50 percent growth reduction) was 0.001 g ai/ha, the “GR80 DIGSA” value (DIGSA (Digitaria sanguinalis), probit analysis, dose for 80 percent growth reduction) was 0.131 g ai/ha and the “GR90 DIGSA” value (DIGSA (Digitaria sanguinalis), probit analysis, dose for 90 percent growth reduction) was 2 g ai/ha. The “GR50 ECHCG” value (ECHCG (Echinochloa crus-galli), probit analysis, dose for 50 percent growth reduction) was 0.0018 g ai/ha, the “GR80 ECHCG” value (ECHCG (Echinochloa crus-galli), probit analysis, dose for 80 percent growth reduction) was 0.0018 g ai/ha and the “GR90 ECHCG” value (ECHCG (Echinochloa crus-galli), probit analysis, dose for 90 percent growth reduction) was 0.0018 g ai/ha. The “GR50 ECHCO” value (ECHCO (Echinochloa colonum), probit analysis, dose for 50 percent growth reduction) was 0.0003 g ai/ha, the “GR80 ECHCO” value (ECHCO (Echinochloa colonum), probit analysis, dose for 80 percent growth reduction) was 0.0415 g ai/ha and the “GR90 ECHCO” value (ECHCO (Echinochloa colonum), probit analysis, dose for 90 percent growth reduction) was 1 g ai/ha. For the same compound, the “GR50 LEFCH” value (LEFCH (Leptochloa chinensis), probit analysis, dose for 50 percent growth reduction) was 6 g ai/ha, the “GR80 LEFCH” value (LEFCH (Leptochloa chinensis), probit analysis, dose for 80 percent growth reduction) was 13 g ai/ha and the “GR90 LEFCH” value (LEFCH (Leptochloa chinensis), probit analysis, dose for 90 percent growth reduction) was 20 g ai/ha. For the same compound, the “GR20 ORYSJ” value (ORYSJ (Oryza sativa, rice crop), probit analysis, dose for 20 percent growth reduction) was 1 g ai/ha, the “GR20 ORYSK” value (ORYSK (Oryza sativa, rice crop), probit analysis, dose for 20 percent growth reduction) was 2 g ai/ha and the “GR50 SCPJU” value (SCPJU (Schoenoplectus juncoides Roxb.), probit analysis, dose for 50 percent growth reduction) was 0.0001 g ai/ha. The “GR80 SCPJU” value (SCPJU (Schoenoplectus juncoides Roxb.), probit analysis, dose for 80 percent growth reduction) was 0.0001 g ai/ha, the “GR90 SCPJU” value (SCPJU (Schoenoplectus juncoides Roxb.), probit analysis, dose for 90 percent growth reduction) was 0.0001 g ai/ha and the “GR50 SEBEX” value (SEBEX (Sesbania exaltata), probit analysis, dose for 50 percent growth reduction) was 4 g ai/ha. The “GR80 SEBEX” value (SEBEX (Sesbania exaltata), probit analysis, dose for 80 percent growth reduction) was 9 g ai/ha, the “GR90 SEBEX” value (SEBEX (Sesbania exaltata), probit analysis, dose for 90 percent growth reduction) was 13 g ai/ha and the pest or weed control at 17.5 g/ha [1] was 95 to 100%. The pest or weed control at 35 g/ha [1] was 95 to 100%, the pest or weed control at 70 g/ha [1] was 95 to 100% and the pest or weed control at 17.5 g/ha [2] was 95 to 100%. For the same compound, the pest or weed control at 35 g/ha [2] was 95 to 100%, the pest or weed control at 70 g/ha [2] was 95 to 100% and the pest or weed control at 17.5 g/ha [3] was 95 to 100%. The pest or weed control at 35 g/ha [3] was 95 to 100%, the pest or weed control at 70 g/ha [3] was 95 to 100% and the pest or weed control at 17.5 g/ha [4] was 95 to 100%. For the same compound, the pest or weed control at 35 g/ha [4] was 95 to 100%, the pest or weed control at 70 g/ha [4] was 95 to 100% and the pest or weed control at 17.5 g/ha [5] was 95 to 100%. It also gave a pest or weed control at 35 g/ha [5] of 95 to 100%, a pest or weed control at 70 g/ha [5] of 95 to 100% and a pest or weed control at 17.5 g/ha [6] of 85 to 94%. The pest or weed control at 35 g/ha [6] was 95 to 100%, the pest or weed control at 70 g/ha [6] was 95 to 100% and the pest or weed control at 17.5 g/ha [7] was 95 to 100%. For the same compound, the pest or weed control at 35 g/ha [7] was 95 to 100%, the pest or weed control at 70 g/ha [7] was 95 to 100% and the pest or weed control at 17.5 g/ha [8] was 85 to 94%. For the same compound, the pest or weed control at 35 g/ha [8] was 95 to 100%, the pest or weed control at 70 g/ha [8] was 95 to 100% and the pest or weed control at 17.5 g/ha [9] was 85 to 94%. It also gave a pest or weed control at 35 g/ha [9] of 95 to 100%, a pest or weed control at 70 g/ha [9] of 95 to 100% and a pest or weed control at 17.5 g/ha [10] of 60 to 74%. It also gave a pest or weed control at 35 g/ha [10] of 75 to 84%, a pest or weed control at 70 g/ha [10] of 85 to 94% and a pest or weed control at 17.5 g/ha [11] of 95 to 100%. For the same compound, the pest or weed control at 35 g/ha [11] was 95 to 100%, the pest or weed control at 70 g/ha [11] was 95 to 100% and the pest or weed control at 17.5 g/ha [12] was 95 to 100%. The pest or weed control at 35 g/ha [12] was 95 to 100% and the pest or weed control at 70 g/ha [12] was 95 to 100%.
